Measured values as given in patent US20020035061A1, “COMPOSITIONS AND METHODS FOR TREATING INFECTIONS USING CATIONIC PEPTIDES ALONE OR IN COMBINATION WITH ANTIBIOTICS” (priority 1996, published 2002).

Test system: bacterial isolates
Test: microbe, parasite or virus in culture
Assay type: cell-based

KWKSFIKKLTSAAKKVVTTAKPLISS [MBI 26]
Peptide MIC Alone (P. aeruginosa PA4, Mupirocin section): >128 µg/mL | Ceftriaxone MIC + Peptide (P. aeruginosa PA008): 8 µg/mL | Peptide MIC + Ceftriaxone (P. aeruginosa PA008): 0.125 µg/mL | Ceftriaxone MIC + Peptide (P. aeruginosa PA024): 4 µg/mL | Peptide MIC + Ceftriaxone (P. aeruginosa PA024): 32 µg/mL | Gentamicin MIC + Peptide (P. aeruginosa PA041): 1 µg/mL | Peptide MIC + Gentamicin (P. aeruginosa PA041): 32 µg/mL | Ciprofloxacin MIC + Peptide (P. aeruginosa PA41): 1 µg/mL | Peptide MIC + Ciprofloxacin (P. aeruginosa PA41): 32 µg/mL | Ciprofloxacin MIC + Peptide (P. aeruginosa PA77): 0.125 µg/mL | Peptide MIC + Ciprofloxacin (P. aeruginosa PA77): 64 µg/mL | Peptide MIC + Piperacillin (S. aureus 19 MRSA): 1 µg/mL | Piperacillin MIC + Peptide (S. aureus 19 MRSA): 16 µg/mL | Peptide MIC Alone (S. aureus 19 MRSA, Piperacillin section): 32 µg/mL | Ciprofloxacin MIC + Peptide (S. aureus SA11): 32 µg/mL | Peptide MIC + Ciprofloxacin (S. aureus SA11): 0.125 µg/mL | Ceftriaxone MIC + Peptide (S. aureus SA025 MRSA): 0.125 µg/mL | Peptide MIC + Ceftriaxone (S. aureus SA025 MRSA): 0.5 µg/mL | FIC (S. aureus SA044, combination with Ciprofloxacin): 0.63 | FIC (S. aureus SA7609, combination with Clindamycin): 0.25 | FIC (S. aureus SA7609, combination with Methicillin): 0.56 | FIC (S. aureus SA7610, combination with Clindamycin): 0.63 | FIC (S. aureus SA7610, combination with Methicillin): 0.31 | FIC (S. aureus SA7795, combination with Ampicillin): 0.52 | FIC (S. aureus SA7795, combination with Clindamycin): 0.53 | FIC (S. aureus SA7796, combination with Ampicillin): 1.00 | FIC (S. aureus SA7796, combination with Clindamycin): 0.51 | FIC (S. aureus SA7817, combination with Ampicillin): 0.50 | FIC (S. aureus SA7818, combination with Ampicillin): 1.00 | FIC (S. aureus SA7818, combination with Erythromycin): 0.15 | FIC (S. aureus SA7821, combination with Erythromycin): 0.50 | FIC (S. aureus SA7822, combination with Ampicillin): 0.25 | FIC (S. aureus SA7823, combination with Ampicillin): 0.25 | FIC (S. aureus SA7824, combination with Ampicillin): 1.00 | FIC (S. aureus SA7825, combination with Ampicillin): 1.00 | FIC (S. aureus SA7825, combination with Erythromycin): 1.00 | FIC (S. aureus SA7834, combination with Ampicillin): 0.53 | FIC (S. aureus SA7834, combination with Clindamycin): 0.56 | FIC (S. aureus SA7835, combination with Ampicillin): 0.53 | FIC (S. aureus SA7836, combination with Ampicillin): 0.75 | FIC (S. aureus SA7837, combination with Ampicillin): 1.00 | FIC (S. aureus SAATCC25293, combination with Methicillin): 0.50 | FIC (S. aureus SAATCC29213, combination with Methicillin): 0.31 | FIC (S. aureus SAW1133, combination with Methicillin): 0.75 | Peptide MIC + Piperacillin (S. aureus SB3MRSA): 16 µg/mL | Piperacillin MIC + Peptide (S. aureus SB3MRSA): 64 µg/mL | Peptide MIC Alone (S. aureus SB3MRSA, Piperacillin section): >128 µg/mL | Mupirocin MIC + Peptide (S. aureus SBSA4): 30 µg/mL | Peptide MIC + Mupirocin (S. aureus SBSA4): 8 µg/mL | Peptide MIC Alone (S. aureus SBSA4, Mupirocin section): 32 µg/mL | Ceftriaxone MIC + Peptide (S. epidermidis SE007): 2 µg/mL | Peptide MIC + Ceftriaxone (S. epidermidis SE007): 0.5 µg/mL | Ceftriaxone MIC + Peptide (S. epidermidis SE012): 16 µg/mL | Peptide MIC + Ceftriaxone (S. epidermidis SE012): 1 µg/mL | Peptide MIC + Tobramycin (S. epidermidis SE067): 0.25 µg/mL | Peptide MIC Alone (S. epidermidis SE067): 2 µg/mL | Tobramycin MIC + Peptide (S. epidermidis SE067): 64 µg/mL | Peptide MIC + Tobramycin (S. epidermidis SE068): 0.5 µg/mL | Peptide MIC Alone (S. epidermidis SE068): 2 µg/mL | Tobramycin MIC + Peptide (S. epidermidis SE068): 4 µg/mL | FIC (S. epidermidis SE8406, combination with Clindamycin): 0.50 | FIC (S. epidermidis SE8416, combination with Clindamycin): 0.56 | FIC (S. epidermidis SE8505, combination with Ampicillin): 1.00 | FIC (S. epidermidis SE8565, combination with Ampicillin): 1.00 | FIC (S. haemolyticus SH8459, combination with Ampicillin): 0.52 | FIC (S. haemolyticus SH8472, combination with Ampicillin): 0.56 | FIC (S. haemolyticus SH8563, combination with Ampicillin): 0.75 | FIC (S. haemolyticus SH8564, combination with Ampicillin): 0.62 | FIC (S. haemolyticus SH8575, combination with Ampicillin): 0.75 | FIC (S. haemolyticus SH8576, combination with Ampicillin): 0.62 | FIC (S. haemolyticus SH8578, combination with Ampicillin): 1.00 | Peptide MIC + Piperacillin (S. maltophilia 3): 4 µg/mL | Piperacillin MIC + Peptide (S. maltophilia 3): 32 µg/mL | Peptide MIC Alone (S. maltophilia 3, Piperacillin section): 16 µg/mL | Ciprofloxacin MIC + Peptide (S. maltophilia 34): 0.25 µg/mL | Peptide MIC + Ciprofloxacin (S. maltophilia 34): 8 µg/mL | Peptide MIC + Piperacillin (S. maltophilia 34): 16 µg/mL | Piperacillin MIC + Peptide (S. maltophilia 34): 4 µg/mL | Peptide MIC Alone (S. maltophilia 34, Piperacillin section): >32 µg/mL | Ciprofloxacin MIC + Peptide (S. maltophilia 35): 0.5 µg/mL | Peptide MIC + Ciprofloxacin (S. maltophilia 35): 16 µg/mL | Peptide MIC + Piperacillin (S. maltophilia 35): 16 µg/mL | Piperacillin MIC + Peptide (S. maltophilia 35): 4 µg/mL | Peptide MIC Alone (S. maltophilia 35, Piperacillin section): >32 µg/mL | Gentamicin MIC + Peptide (S. maltophilia SMA016): 32 µg/mL | Peptide MIC + Gentamicin (S. maltophilia SMA016): 32 µg/mL | Gentamicin MIC + Peptide (S. maltophilia SMA017): 16 µg/mL | Peptide MIC + Gentamicin (S. maltophilia SMA017): 2 µg/mL | Ceftriaxone MIC + Peptide (S. maltophilia SMA019): 64 µg/mL | Peptide MIC + Ceftriaxone (S. maltophilia SMA019): 1 µg/mL | Ceftriaxone MIC + Peptide (S. maltophilia SMA020): 32 µg/mL | Peptide MIC + Ceftriaxone (S. maltophilia SMA020): 1 µg/mL | Amikacin MIC + Peptide (S. maltophilia SMA021): 8 µg/mL | Peptide MIC + Amikacin (S. maltophilia SMA021): 2 µg/mL | Peptide MIC + Tobramycin (S. maltophilia SMA029): 4 µg/mL | Peptide MIC Alone (S. maltophilia SMA029): >128 µg/mL | Tobramycin MIC + Peptide (S. maltophilia SMA029): 4 µg/mL | Peptide MIC + Tobramycin (S. maltophilia SMA030): 4 µg/mL | Peptide MIC Alone (S. maltophilia SMA030): >128 µg/mL | Tobramycin MIC + Peptide (S. maltophilia SMA030): 4 µg/mL | Amikacin MIC + Peptide (S. maltophilia SMA037): 16 µg/mL | Peptide MIC + Amikacin (S. maltophilia SMA037): 16 µg/mL | Peptide MIC + Piperacillin (S. marcescens 1): 0.5 µg/mL | Piperacillin MIC + Peptide (S. marcescens 1): 32 µg/mL | Peptide MIC Alone (S. marcescens 1, Piperacillin section): >128 µg/mL | FIC (peptide + Amikacin, A. baumannii ABI001): 0.50 | FIC (peptide + Amikacin, A. baumannii ABI003): 0.38 | FIC (peptide + Amikacin, S. maltophilia SMA021): 0.13 | FIC (peptide + Amikacin, S. maltophilia SMA037): 0.19 | FIC (peptide + Ceftriaxone, A. baumannii ABI002): 0.50 | FIC (peptide + Ceftriaxone, A. baumannii ABI005): 0.56 | FIC (peptide + Ceftriaxone, B. cepacia BC003): 0.50 | FIC (peptide + Ceftriaxone, E. cloacae ECL014): 0.50 | FIC (peptide + Ceftriaxone, E. cloacae ECL015): 0.19 | FIC (peptide + Ceftriaxone, K. pneumoniae KP003): 0.56 | FIC (peptide + Ceftriaxone, P. aeruginosa PA008): 0.13 | FIC (peptide + Ceftriaxone, P. aeruginosa PA024): 0.50 | FIC (peptide + Ceftriaxone, S. aureus SA025 MRSA): 0.52 | FIC (peptide + Ceftriaxone, S. epidermidis SE007): 0.27 | FIC (peptide + Ceftriaxone, S. epidermidis SE012): 0.27 | FIC (peptide + Ceftriaxone, S. maltophilia SMA019): 0.50 | FIC (peptide + Ceftriaxone, S. maltophilia SMA020): 0.38 | FIC (peptide + Ciprofloxacin, A. calcoaceticus 1): 0.51 | FIC (peptide + Ciprofloxacin, A. calcoaceticus 6): 0.50 | FIC (peptide + Ciprofloxacin, E. cloacae 13): 0.27 | FIC (peptide + Ciprofloxacin, E. cloacae 15): 0.38 | FIC (peptide + Ciprofloxacin, E. cloacae 16): 0.38 | FIC (peptide + Ciprofloxacin, P. aeruginosa 23): 0.53 | FIC (peptide + Ciprofloxacin, P. aeruginosa 24): 0.53 | FIC (peptide + Ciprofloxacin, P. aeruginosa PA41): 0.50 | FIC (peptide + Ciprofloxacin, P. aeruginosa PA77): 0.56 | FIC (peptide + Ciprofloxacin, S. aureus SA11): 0.50 | FIC (peptide + Ciprofloxacin, S. maltophilia 34): 0.25 | FIC (peptide + Ciprofloxacin, S. maltophilia 35): 0.50 | FIC (peptide + Gentamicin, A. baumannii ABI001): 0.50 | FIC (peptide + Gentamicin, A. baumannii ABI002): 0.53 | FIC (peptide + Gentamicin, P. aeruginosa PA041): 0.63 | FIC (peptide + Gentamicin, S. maltophilia SMA016): 0.25 | FIC (peptide + Gentamicin, S. maltophilia SMA017): 0.38 | FIC (peptide + Mupirocin, E. coli ECO5): 0.43 | FIC (peptide + Mupirocin, E. coli SBECO2): 0.16 | FIC (peptide + Mupirocin, P. aeruginosa PA2): 0.51 | FIC (peptide + Mupirocin, P. aeruginosa PA4): 0.23 | FIC (peptide + Mupirocin, S. aureus SBSA4): 0.28 | FIC (peptide + Piperacillin, A. calcoaceticus 7): 0.25 | FIC (peptide + Piperacillin, A. calcoaceticus 8): 0.19 | FIC (peptide + Piperacillin, E. cloacae 13): 0.16 | FIC (peptide + Piperacillin, H. influenzae 1): 0.53 | FIC (peptide + Piperacillin, H. influenzae 2): 0.51 | FIC (peptide + Piperacillin, P. aeruginosa 7): 0.25 | FIC (peptide + Piperacillin, P. aeruginosa 23): 0.27 | FIC (peptide + Piperacillin, P. aeruginosa 28): 0.14 | FIC (peptide + Piperacillin, P. aeruginosa 41): 0.53 | FIC (peptide + Piperacillin, S. aureus 19 MRSA): 0.16 | FIC (peptide + Piperacillin, S. aureus SB3MRSA): 0.31 | FIC (peptide + Piperacillin, S. maltophilia 3): 0.50 | FIC (peptide + Piperacillin, S. maltophilia 34): 0.25 | FIC (peptide + Piperacillin, S. maltophilia 35): 0.26 | FIC (peptide + Piperacillin, S. marcescens 1): 0.50 | FIC (peptide + Tobramycin, S. epidermidis SE067): 0.38 | FIC (peptide + Tobramycin, S. epidermidis SE068): 0.27 | FIC (peptide + Tobramycin, S. maltophilia SMA029): 0.05 | FIC (peptide + Tobramycin, S. maltophilia SMA030): 0.05 | FIC (peptide + Vancomycin, E. faecalis EFS005): 0.31 | FIC (peptide + Vancomycin, E. faecalis EFS012): 0.07 | FIC (peptide + Vancomycin, E. faecalis EFS013): 0.07 | FIC (peptide + Vancomycin, E. faecium EFM010): 0.31 | FIC (peptide + Vancomycin, E. faecium EFM011): 0.31
